Source: patent EP4467141A1, “PYRAZOLO-QUINOLINES AS SELECTIVE INHIBITORS OF GENOTOXIC STRESS-INDUCED IKK/NF- KB PATHWAYS FOR CANCER THERAPY” (Max-Delbrück-Centrum für Molekulare Medizin in der …, priority 2023, dated 2024)

Assays:
Experiment in all cases: Kinase panel study
Format in all cases: biochemical
Conditions in all cases: read-out: Percentage of inhibition; for inhibition at 1 µM: 1000nM; for inhibition at 10 µM: 10000nM
PRKCZ (PKC zeta) = biological target: T1, PRKCZ (PKC zeta) (Homo sapiens, UniProt Q05513)
T1 construct: purchased Thermo Fisher Scientific
T1 sequence (Q05513 1-592): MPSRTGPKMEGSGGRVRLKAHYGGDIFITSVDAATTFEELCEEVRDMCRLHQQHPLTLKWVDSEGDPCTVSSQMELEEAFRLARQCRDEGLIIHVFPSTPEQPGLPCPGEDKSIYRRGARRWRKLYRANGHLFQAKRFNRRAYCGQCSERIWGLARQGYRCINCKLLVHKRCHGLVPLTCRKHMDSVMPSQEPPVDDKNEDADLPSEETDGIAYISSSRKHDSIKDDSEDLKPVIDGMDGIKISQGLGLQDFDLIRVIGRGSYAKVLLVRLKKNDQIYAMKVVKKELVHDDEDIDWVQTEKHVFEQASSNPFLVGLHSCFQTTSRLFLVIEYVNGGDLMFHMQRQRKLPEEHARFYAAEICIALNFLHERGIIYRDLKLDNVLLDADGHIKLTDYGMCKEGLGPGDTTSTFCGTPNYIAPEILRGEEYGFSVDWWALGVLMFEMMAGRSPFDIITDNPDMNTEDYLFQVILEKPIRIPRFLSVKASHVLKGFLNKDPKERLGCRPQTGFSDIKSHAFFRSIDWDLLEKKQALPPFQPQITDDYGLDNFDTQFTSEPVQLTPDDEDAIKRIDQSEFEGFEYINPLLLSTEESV
In short: (§1)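 Outsourced panel screen. Format: ZLyte or Adapta, run per the manufacturer's procedures. Read-out: inhibition (%) at a single dose of 10 µM or 1 µM; IC50s also generated.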

MET M1250T = biological target: T2, MET M1250T (Homo sapiens, UniProt P08581, M1250T)
T2 construct: purchased Thermo Fisher Scientific
T2 sequence (P08581 25-1390 M1250T): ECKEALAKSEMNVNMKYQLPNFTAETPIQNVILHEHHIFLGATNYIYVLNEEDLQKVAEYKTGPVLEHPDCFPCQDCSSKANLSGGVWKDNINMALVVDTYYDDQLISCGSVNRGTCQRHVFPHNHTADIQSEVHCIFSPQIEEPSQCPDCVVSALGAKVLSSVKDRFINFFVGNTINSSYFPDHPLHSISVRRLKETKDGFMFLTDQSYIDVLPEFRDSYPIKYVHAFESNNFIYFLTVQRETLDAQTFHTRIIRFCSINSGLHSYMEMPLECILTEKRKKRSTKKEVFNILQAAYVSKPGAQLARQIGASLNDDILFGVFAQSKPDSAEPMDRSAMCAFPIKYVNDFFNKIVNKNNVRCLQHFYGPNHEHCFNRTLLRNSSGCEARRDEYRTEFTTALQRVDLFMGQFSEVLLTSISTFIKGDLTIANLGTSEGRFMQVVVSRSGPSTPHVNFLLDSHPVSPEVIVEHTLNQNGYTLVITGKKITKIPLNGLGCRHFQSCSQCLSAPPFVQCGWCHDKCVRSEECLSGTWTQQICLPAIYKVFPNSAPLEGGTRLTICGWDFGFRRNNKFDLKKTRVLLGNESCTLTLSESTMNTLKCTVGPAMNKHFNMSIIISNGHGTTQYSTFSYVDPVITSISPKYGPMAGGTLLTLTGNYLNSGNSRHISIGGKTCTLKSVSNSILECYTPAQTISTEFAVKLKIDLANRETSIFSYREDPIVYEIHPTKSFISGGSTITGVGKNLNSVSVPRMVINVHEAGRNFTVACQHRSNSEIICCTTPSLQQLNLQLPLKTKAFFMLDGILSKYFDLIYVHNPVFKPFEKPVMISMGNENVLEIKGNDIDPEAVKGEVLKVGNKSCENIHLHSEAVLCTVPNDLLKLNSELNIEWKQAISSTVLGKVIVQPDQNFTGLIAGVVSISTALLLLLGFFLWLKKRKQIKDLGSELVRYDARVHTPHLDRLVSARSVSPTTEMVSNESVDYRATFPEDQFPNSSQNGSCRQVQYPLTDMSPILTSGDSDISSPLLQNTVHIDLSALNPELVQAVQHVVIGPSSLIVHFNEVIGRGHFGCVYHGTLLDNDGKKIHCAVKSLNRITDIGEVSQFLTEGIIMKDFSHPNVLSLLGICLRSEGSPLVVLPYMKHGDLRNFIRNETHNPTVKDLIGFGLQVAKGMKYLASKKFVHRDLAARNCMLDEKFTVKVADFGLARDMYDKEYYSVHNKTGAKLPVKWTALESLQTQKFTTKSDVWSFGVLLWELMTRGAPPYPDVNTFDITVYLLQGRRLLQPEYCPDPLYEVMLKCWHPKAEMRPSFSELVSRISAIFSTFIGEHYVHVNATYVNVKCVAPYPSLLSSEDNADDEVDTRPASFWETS
In short: as §1

SPHK2 = biological target: T3, SPHK2 (Homo sapiens, UniProt Q9NRA0)
T3 construct: purchased Thermo Fisher Scientific
T3 sequence (Q9NRA0 1-654): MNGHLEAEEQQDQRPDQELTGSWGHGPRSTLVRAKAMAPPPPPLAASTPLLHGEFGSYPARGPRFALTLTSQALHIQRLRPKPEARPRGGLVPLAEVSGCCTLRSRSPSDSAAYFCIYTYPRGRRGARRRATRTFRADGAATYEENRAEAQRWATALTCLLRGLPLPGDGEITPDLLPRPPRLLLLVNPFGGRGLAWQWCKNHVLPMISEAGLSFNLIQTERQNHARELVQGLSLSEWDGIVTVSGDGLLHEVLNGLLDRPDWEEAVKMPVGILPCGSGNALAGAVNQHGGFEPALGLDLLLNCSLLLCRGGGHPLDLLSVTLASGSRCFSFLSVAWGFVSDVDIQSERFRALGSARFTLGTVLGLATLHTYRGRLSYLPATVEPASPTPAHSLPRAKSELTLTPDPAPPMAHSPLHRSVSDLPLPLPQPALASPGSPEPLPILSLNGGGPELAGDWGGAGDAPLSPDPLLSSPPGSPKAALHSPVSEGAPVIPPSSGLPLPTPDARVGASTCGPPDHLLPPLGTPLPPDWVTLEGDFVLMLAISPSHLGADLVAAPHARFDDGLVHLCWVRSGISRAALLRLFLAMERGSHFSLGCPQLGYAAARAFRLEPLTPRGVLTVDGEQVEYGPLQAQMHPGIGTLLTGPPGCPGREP
In short: as §1

PIK3C2B (PI3K-C2 beta) = biological target: T4, PIK3C2B (PI3K-C2 beta) (Homo sapiens, UniProt O00750)
T4 construct: purchased Thermo Fisher Scientific
T4 sequence (O00750 whole entry): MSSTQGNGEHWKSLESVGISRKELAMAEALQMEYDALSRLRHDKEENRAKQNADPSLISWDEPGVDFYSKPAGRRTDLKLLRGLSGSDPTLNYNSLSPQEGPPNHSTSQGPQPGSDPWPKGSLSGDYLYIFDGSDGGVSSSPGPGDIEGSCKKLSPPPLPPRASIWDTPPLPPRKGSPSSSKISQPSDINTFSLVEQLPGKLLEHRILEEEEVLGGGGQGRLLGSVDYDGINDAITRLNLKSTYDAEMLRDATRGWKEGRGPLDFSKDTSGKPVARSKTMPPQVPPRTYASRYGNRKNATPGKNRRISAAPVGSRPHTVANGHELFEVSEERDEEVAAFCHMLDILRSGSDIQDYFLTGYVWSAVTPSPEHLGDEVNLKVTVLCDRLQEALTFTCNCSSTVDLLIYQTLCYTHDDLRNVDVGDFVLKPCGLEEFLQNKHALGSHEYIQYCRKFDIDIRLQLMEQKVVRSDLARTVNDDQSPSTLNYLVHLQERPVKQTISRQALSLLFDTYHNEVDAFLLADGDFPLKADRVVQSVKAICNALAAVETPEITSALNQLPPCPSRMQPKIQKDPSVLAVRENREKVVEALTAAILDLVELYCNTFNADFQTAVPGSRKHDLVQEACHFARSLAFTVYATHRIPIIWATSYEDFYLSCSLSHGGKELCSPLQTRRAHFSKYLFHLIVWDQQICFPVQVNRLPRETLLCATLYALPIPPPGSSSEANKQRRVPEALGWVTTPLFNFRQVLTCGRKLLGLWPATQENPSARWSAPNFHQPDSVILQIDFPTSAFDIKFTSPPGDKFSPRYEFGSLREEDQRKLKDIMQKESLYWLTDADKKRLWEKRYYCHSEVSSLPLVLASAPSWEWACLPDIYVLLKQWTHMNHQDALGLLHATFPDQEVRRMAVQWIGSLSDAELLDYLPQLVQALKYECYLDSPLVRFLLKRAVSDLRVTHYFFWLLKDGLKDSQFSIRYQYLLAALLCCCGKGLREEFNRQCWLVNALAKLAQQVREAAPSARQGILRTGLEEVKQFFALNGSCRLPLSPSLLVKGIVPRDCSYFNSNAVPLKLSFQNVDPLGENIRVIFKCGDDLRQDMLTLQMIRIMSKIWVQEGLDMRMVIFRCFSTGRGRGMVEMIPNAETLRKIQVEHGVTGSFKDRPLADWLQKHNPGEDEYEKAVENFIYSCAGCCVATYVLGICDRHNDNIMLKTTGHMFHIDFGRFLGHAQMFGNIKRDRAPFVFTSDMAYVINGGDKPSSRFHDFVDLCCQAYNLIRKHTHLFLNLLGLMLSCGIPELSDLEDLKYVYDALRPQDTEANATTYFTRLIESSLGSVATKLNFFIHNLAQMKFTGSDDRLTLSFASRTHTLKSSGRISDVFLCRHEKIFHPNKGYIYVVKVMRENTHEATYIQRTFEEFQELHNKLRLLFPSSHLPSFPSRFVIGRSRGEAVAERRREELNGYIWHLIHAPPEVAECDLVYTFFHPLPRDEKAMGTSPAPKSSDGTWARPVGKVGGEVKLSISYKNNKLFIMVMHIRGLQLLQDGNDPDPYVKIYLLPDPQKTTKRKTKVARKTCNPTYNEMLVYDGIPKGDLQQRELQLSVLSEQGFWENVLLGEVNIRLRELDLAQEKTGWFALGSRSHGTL
In short: as §1

EEF2K = biological target: T5, EEF2K (Homo sapiens, UniProt O00418)
T5 construct: purchased Thermo Fisher Scientific
In short: as §1

RPS6KA6 (RSK4) = biological target: T6, RPS6KA6 (RSK4) (Homo sapiens, UniProt Q9UK32)
T6 construct: purchased Thermo Fisher Scientific
T6 sequence (Q9UK32 whole entry): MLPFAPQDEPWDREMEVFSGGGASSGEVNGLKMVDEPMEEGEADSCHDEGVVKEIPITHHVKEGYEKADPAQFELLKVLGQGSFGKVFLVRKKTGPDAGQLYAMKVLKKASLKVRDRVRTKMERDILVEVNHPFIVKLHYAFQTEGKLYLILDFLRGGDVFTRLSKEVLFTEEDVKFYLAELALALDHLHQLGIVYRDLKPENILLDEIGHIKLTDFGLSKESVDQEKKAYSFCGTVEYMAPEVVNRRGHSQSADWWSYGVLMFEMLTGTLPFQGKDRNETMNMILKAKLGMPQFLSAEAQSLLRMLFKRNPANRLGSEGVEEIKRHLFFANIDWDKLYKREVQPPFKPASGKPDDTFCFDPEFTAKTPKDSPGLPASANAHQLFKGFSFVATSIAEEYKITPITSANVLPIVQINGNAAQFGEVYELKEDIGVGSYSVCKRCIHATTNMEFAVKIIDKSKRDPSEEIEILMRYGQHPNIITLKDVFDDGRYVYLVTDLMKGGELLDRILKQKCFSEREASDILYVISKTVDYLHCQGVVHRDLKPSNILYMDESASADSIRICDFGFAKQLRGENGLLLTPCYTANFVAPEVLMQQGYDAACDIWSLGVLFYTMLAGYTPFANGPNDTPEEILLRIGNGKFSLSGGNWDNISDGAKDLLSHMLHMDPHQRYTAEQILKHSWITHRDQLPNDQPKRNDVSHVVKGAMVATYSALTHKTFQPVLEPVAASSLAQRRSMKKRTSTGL
In short: as §1

Compound: COc1ccc2c(c1OC)c(=O)n1c3ccc(O)cc3c3ccnc2c31 [MW01, 5-Hydroxy-10,11-dimethoxy-9H-benzo[c]indolo[3,2,1-ij][1,5]naphthyridin-9-one]
- inhibition at 1 µM (PRKCZ (PKC zeta)): 18%
- inhibition at 10 µM (PRKCZ (PKC zeta)): 10%
- inhibition at 1 µM (MET M1250T): 19%
- inhibition at 10 µM (MET M1250T): 42%
- inhibition at 1 µM (SPHK2): -16%
- inhibition at 10 µM (SPHK2): -8%
- inhibition at 1 µM (PIK3C2B (PI3K-C2 beta)): 53%
- inhibition at 10 µM (PIK3C2B (PI3K-C2 beta)): 68%
- inhibition at 1 µM (EEF2K): 11%
- inhibition at 10 µM (EEF2K): 37%
- inhibition at 1 µM (RPS6KA6 (RSK4)): 5%
- inhibition at 10 µM (RPS6KA6 (RSK4)): 17%

Compound: COc1ccc2cc3c(N)nn(C(=O)c4cccc(N(C)C)c4)c3nc2c1 [MW05, (3-Amino-7-methoxypyrazolo[3,4-b]quinolin-1-yl)-[3-(dimethylamino)phenyl]methanone]
- inhibition at 1 µM (PRKCZ (PKC zeta)): 16%
- inhibition at 10 µM (PRKCZ (PKC zeta)): -4%
- inhibition at 1 µM (MET M1250T): 1%
- inhibition at 10 µM (MET M1250T): -15%
- inhibition at 1 µM (SPHK2): -7%
- inhibition at 10 µM (SPHK2): -4%
- inhibition at 1 µM (PIK3C2B (PI3K-C2 beta)): 2%
- inhibition at 10 µM (PIK3C2B (PI3K-C2 beta)): 12%
- inhibition at 1 µM (EEF2K): 3%
- inhibition at 10 µM (EEF2K): 5%
- inhibition at 1 µM (RPS6KA6 (RSK4)): 2%
- inhibition at 10 µM (RPS6KA6 (RSK4)): 4%
